Experimental data: patent US10968178B2, “IP6K inhibitors” (TAKEDA PHARMACEUTICAL COMPANY LIMITED, priority 2017, dated 2021)

Columns and labels:
Assay type in all cases: biochemical
human IP6K1 = target: T1, human IP6K1 (Homo sapiens, UniProt Q92551); test: IP6K enzyme inhibitory assay (ADP-Glo Kinase Assay), human IP6K1; details: compound concentration 0.1 μM; read-out: ADP-Glo method inhibitory rate (%) human IP6K1
T1 construct: human IP6K1 (1-441) gene; GST; made in house; host or cells: Sf-9 insect cells
Procedure, shortened: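 Inhibition of human IP6K1 was determined with Promega's ADP-Glo Kinase Assay in 384 well plates. Test compound diluted in assay buffer (20 mM HEPES (pH 7.5), 6 mM MgCl2, 0.01% Tween-20, 1 mM DTT) was added at 2 μL, then 2 μL of enzyme started the reaction for 60 min at room temperature. Next came 3 μL ADP-Glo solution for 30 min and 6 μL Kinase-Detection solution for 60 min. Luminescence was read on an Envision plate reader.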

human IP6K2 = target: T2, human IP6K2 (Homo sapiens, UniProt Q9UHH9); test: IP6K enzyme inhibitory assay (ADP-Glo Kinase Assay), human IP6K2; details: compound concentration 0.1 μM; read-out: ADP-Glo method inhibitory rate (%) human IP6K2
T2 construct: human IP6K2 (1-426) gene; GST; made in house; host or cells: Sf-9 insect cells
T2 sequence (Q9UHH9 1-426): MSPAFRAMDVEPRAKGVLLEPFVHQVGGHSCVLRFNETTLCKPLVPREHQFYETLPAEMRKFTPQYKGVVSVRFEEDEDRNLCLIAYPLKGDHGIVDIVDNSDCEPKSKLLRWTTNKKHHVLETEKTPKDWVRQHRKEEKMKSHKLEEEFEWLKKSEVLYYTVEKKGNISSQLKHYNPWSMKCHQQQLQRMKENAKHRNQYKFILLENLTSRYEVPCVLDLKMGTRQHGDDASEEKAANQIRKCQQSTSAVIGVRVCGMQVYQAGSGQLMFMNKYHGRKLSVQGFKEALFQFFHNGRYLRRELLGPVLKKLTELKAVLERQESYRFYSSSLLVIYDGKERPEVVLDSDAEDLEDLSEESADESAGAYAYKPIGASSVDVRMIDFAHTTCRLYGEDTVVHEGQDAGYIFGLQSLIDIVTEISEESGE
Procedure, shortened: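 The inhibitory activity against human IP6K2 was measured with Promega's ADP-Glo Kinase Assay in 384 well plates. Test compound, diluted in assay buffer (20 mM HEPES (pH 7.5), 6 mM MgCl2, 0.01% Tween-20, 1 mM DTT), was added at 2 μL. Adding 2 μL of diluted enzyme started the reaction, which ran for 60 min at room temperature. Next, 3 μL ADP-Glo solution (30 min) and 6 μL Kinase-Detection solution (60 min) were added, and luminescence was read on an Envision plate reader.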

human IP6K3 = target: T3, human IP6K3 (Homo sapiens, UniProt Q96PC2); test: IP6K enzyme inhibitory assay (ADP-Glo Kinase Assay), human IP6K3; details: compound concentration 0.1 μM; read-out: ADP-Glo method inhibitory rate (%) human IP6K3
T3 construct: human IP6K3 (1-410) gene; made in house; host or cells: BL21 (DE3) Escherichia coli
T3 sequence (Q96PC2 1-410): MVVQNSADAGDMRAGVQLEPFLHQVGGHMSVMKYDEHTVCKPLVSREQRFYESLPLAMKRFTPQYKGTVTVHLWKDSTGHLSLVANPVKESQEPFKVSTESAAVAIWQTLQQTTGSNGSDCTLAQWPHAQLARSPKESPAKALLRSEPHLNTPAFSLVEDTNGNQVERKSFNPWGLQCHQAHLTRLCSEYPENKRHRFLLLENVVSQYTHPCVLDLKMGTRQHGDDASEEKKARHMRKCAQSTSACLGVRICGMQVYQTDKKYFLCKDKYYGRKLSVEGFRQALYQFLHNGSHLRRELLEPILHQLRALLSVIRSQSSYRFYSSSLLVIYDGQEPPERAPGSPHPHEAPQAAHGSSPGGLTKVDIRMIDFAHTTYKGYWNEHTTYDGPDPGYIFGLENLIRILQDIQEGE
Procedure, shortened: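 Recombinant human IP6K (IP6K3 residues 1-410, E. coli, Ni-NTA purified) incubated with compound in 20 mM HEPES pH 7.5, 6 mM MgCl2, 0.01% Tween-20, 1 mM DTT for 60 min at room temperature. ADP formed read as luminescence by ADP-Glo.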

T1 sequence (Q92551 whole entry): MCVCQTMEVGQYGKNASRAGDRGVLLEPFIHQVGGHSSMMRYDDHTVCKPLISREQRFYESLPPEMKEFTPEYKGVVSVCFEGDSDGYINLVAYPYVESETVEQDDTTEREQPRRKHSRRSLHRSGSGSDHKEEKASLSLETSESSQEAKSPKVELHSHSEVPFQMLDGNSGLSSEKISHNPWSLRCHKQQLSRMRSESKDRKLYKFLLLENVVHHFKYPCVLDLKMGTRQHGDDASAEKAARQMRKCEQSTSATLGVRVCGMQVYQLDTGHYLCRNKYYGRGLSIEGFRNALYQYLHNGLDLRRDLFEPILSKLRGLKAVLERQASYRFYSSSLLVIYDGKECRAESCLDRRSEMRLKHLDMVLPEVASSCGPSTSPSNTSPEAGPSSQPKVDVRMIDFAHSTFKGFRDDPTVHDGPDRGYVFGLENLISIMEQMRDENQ

Row | inhibition at 0.1 µM (human IP6K1) [%] | inhibition at 0.1 µM (human IP6K2) [%] | inhibition at 0.1 µM (human IP6K3) [%] | Structure (SMILES)
1 | 95 | 99 | 101 | O=C(O)c1ccc2c(n1)[C@]1(CC[C@H](Oc3ccc(Cl)cc3C(F)(F)F)CC1)C(=O)N2 [Example 96, (1s,4s)-4-(4-chloro-2-(trifluoromethyl)phenoxy)-2′-oxo-1′,2′-dihydrospiro[cyclohexane-1,3′-pyrrolo[3,2-b]pyridine]-5′-carboxylic acid]
2 | 51 | 64 | 83 | O=C(O)c1ccc2c(n1)[C@]1(CC[C@@H](Oc3ncc(Cl)cc3C(F)(F)F)CC1)C(=O)N2 [Example 99, (1r,4r)-4-((5-chloro-3-(trifluoromethyl)pyridin-2-yl)oxy)-2′-oxo-1′,2′-dihydrospiro[cyclohexane-1,3′-pyrrolo[3,2-b]pyridine]-5′-carboxylic acid]
3 | 76 | 98 | 97 | O=C(O)c1ccc2c(n1)[C@]1(CC[C@H](Oc3ncc(Cl)cc3F)CC1)C(=O)N2 [Example 100, (1s,4s)-4-((5-chloro-3-fluoropyridin-2-yl)oxy)-2′-oxo-1′,2′-dihydrospiro[cyclohexane-1,3′-pyrrolo[3,2-b]pyridine]-5′-carboxylic acid]
4 | 104 | 100 | 98 | O=C(O)c1ccc2c(n1)[C@]1(CC[C@H](Oc3ccc(Cl)cc3Cl)CC1)C(=O)N2 [Example 101, (1s,4s)-4-(2,4-dichlorophenoxy)-2′-oxo-1′,2′-dihydrospiro[cyclohexane-1,3′-pyrrolo[3,2-b]pyridine]-5′-carboxylic acid]
5 | 105 | 94 | 97 | O=C(O)c1ccc2c(n1)[C@]1(CC[C@@H](Oc3ccc(Cl)cc3Cl)CC1)C(=O)N2 [Example 102, (1r,4r)-4-(2,4-dichlorophenoxy)-2′-oxo-1′,2′-dihydrospiro[cyclohexane-1,3′-pyrrolo[3,2-b]pyridine]-5′-carboxylic acid]
6 | 98 | 99 | 99 | Cc1cc(C(F)(F)F)cnc1O[C@H]1CC[C@]2(CC1)C(=O)Nc1ccc(C(=O)O)nc12 [Example 103, (1s,4s)-4-((3-methyl-5-(trifluoromethyl)pyridin-2-yl)oxy)-2′-oxo-1′,2′-dihydrospiro[cyclohexane-1,3′-pyrrolo[3,2-b]pyridine]-5′-carboxylic acid]
7 | 95 | 99 | 98 | Cc1ccc(C#N)c(O[C@H]2CC[C@]3(CC2)C(=O)Nc2ccc(C(=O)O)cc23)n1 [Example 104, (1s,4s)-4-((3-cyano-6-methylpyridin-2-yl)oxy)-2′-oxo-1′,2′-dihydrospiro[cyclohexane-1,3′-indole]-5′-carboxylic acid]
8 | 86 | 94 | 95 | O=C(O)c1ccc2c(n1)[C@]1(CC[C@@H](Oc3ncc(C(F)(F)F)cc3Cl)CC1)C(=O)N2 [Example 105, (1r,4r)-4-((3-chloro-5-(trifluoromethyl)pyridin-2-yl)oxy)-2′-oxo-1′,2′-dihydrospiro[cyclohexane-1,3′-pyrrolo[3,2-b]pyridine]-5′-carboxylic acid]
9 | 96 | 97 | 95 | Cc1c(Cl)cnc(O[C@H]2CC[C@]3(CC2)C(=O)Nc2ccc(C(=O)O)nc23)c1C#N [Example 106, (1s,4s)-4-((5-chloro-3-cyano-4-methylpyridin-2-yl)oxy)-2′-oxo-1′,2′-dihydrospiro[cyclohexane-1,3′-pyrrolo[3,2-b]pyridine]-5′-carboxylic acid]
10 | 94 | 93 | 92 | O=C(O)c1ccc2c(c1)[C@]1(CC[C@H](Oc3ccccc3)CC1)C(=O)N2 [Example 107, (1s,4s)-2′-oxo-4-phenoxy-1′,2′-dihydrospiro[cyclohexane-1,3′-indole]-5′-carboxylic acid]
11 | 97 | 101 | 99 | O=C(O)c1ccc2c(c1)[C@]1(CC[C@H](Oc3ccc(Cl)cc3)CC1)C(=O)N2 [Example 108, (1s,4s)-4-(4-chlorophenoxy)-2′-oxo-1′,2′-dihydrospiro[cyclohexane-1,3′-indole]-5′-carboxylic acid]
12 | 94 | 95 | 95 | O=C(O)c1ccc2c(n1)[C@]1(CC[C@@H](Oc3ncc(C4CC4)cc3C(F)(F)F)CC1)C(=O)N2 [Example 109, (1r,4r)-4-((5-cyclopropyl-3-(trifluoromethyl)pyridin-2-yl)oxy)-2′-oxo-1′,2′-dihydrospiro[cyclohexane-1,3′-pyrrolo[3,2-b]pyridine]-5′-carboxylic acid]
13 | 84 | 96 | 96 | N#Cc1cc(Cl)cnc1O[C@H]1CC[C@]2(CC1)C(=O)Nc1ccc(C(=O)O)nc12 [Example 110, (1s,4s)-4-((5-chloro-3-cyanopyridin-2-yl)oxy)-2′-oxo-1′,2′-dihydrospiro[cyclohexane-1,3′-pyrrolo[3,2-b]pyridine]-5′-carboxylic acid]
14 | 91 | 99 | 98 | O=C(O)c1ccc2c(n1)[C@]1(CC[C@H](Oc3ncc(C4CC4)cc3Cl)CC1)C(=O)N2 [Example 111, (1s,4s)-4-((3-chloro-5-cyclopropylpyridin-2-yl)oxy)-2′-oxo-1′,2′-dihydrospiro[cyclohexane-1,3′-pyrrolo[3,2-b]pyridine]-5′-carboxylic acid]
15 | 90 | 90 | 97 | Cc1cc(C(F)(F)F)cnc1O[C@H]1CC[C@@]2(CC1)C(=O)Nc1ccc(C(=O)O)nc12 [Example 112, (1r,4r)-4-((3-methyl-5-(trifluoromethyl)pyridin-2-yl)oxy)-2′-oxo-1′,2′-dihydrospiro[cyclohexane-1,3′-pyrrolo[3,2-b]pyridine]-5′-carboxylic acid]
16 | 79 | 79 | 85 | O=C(O)c1ccc2c(c1)[C@]1(CC[C@@H](Oc3ccccc3)CC1)C(=O)N2 [Example 113, (1r,4r)-2′-oxo-4-phenoxy-1′,2′-dihydrospiro[cyclohexane-1,3′-indole]-5′-carboxylic acid]
17 | 99 | 101 | 96 | O=C(O)c1ccc2c(c1)[C@]1(CC[C@@H](Oc3ccc(Cl)cc3)CC1)C(=O)N2 [Example 114, (1r,4r)-4-(4-chlorophenoxy)-2′-oxo-1′,2′-dihydrospiro[cyclohexane-1,3′-indole]-5′-carboxylic acid]
18 | 97 | 99 | 99 | O=C(O)c1ccc2c(n1)[C@]1(CC[C@H](Oc3ncc(C(F)(F)F)cc3Cl)CC1)C(=O)N2 [Example 115, (1s,4s)-4-((3-chloro-5-(trifluoromethyl)pyridin-2-yl)oxy)-2′-oxo-1′,2′-dihydrospiro[cyclohexane-1,3′-pyrrolo[3,2-b]pyridine]-5′-carboxylic acid]
